Results reported in PubChem BioAssay (NCI).
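Protocol summary: plate cells (96-well), add compound at 5 concentrations, incubate 48 h, interpolate endpoints linearly. GI50: concentration for 50% inhibition of growth. TGI: total growth inhibition.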

What was measured:
Test in all cases: growth of human tumour cells (NCI), 48 h
[1] = test system: HL-60(TB) leukemia
[2] = test system: HCC-2998 colon
[3] = test system: OVCAR-8 ovarian
[4] = test system: K-562 leukemia
[5] = test system: KM12 colon
[6] = test system: SF-295 CNS
[7] = test system: SF-539 CNS
[8] = test system: LOX IMVI melanoma
[9] = test system: SR leukemia
[10] = test system: MDA-N

Compound | TGI [1] [µM] | TGI [2] [µM] | TGI [3] [µM] | TGI [4] [µM] | TGI [5] [µM] | TGI [6] [µM] | TGI [7] [µM] | TGI [8] [µM] | TGI [9] [µM] | TGI [10] [µM] | GI50 [2] [µM] | GI50 [3] [µM] | GI50 [5] [µM] | GI50 [6] [µM] | GI50 [7] [µM] | GI50 [8] [µM]
COc1cc(/C=C2\CCc3cc(OC)c(OC)cc3C2=O)cc(OC)c1 | > 24 | 15 | > 52 | > 61 | > 51.7 | > 25.1 | > 31 | 30.9 | – | – | – | – | – | – | – | –
CCCCCC(/C=N/NC(N)=S)C(O)(C(F)(F)F)C(F)(F)F (stereo unspecified) | – | > 10 | > 10 | > 10 | > 10 | > 10 | > 10 | > 10 | > 10 | > 10 | – | – | – | – | – | –
c1ccc(-c2cc(-c3cc(-c4ccccc4)n[nH]3)[nH]n2)cc1 | – | > 100 | > 100 | > 100 | > 100 | > 100 | > 100 | – | > 100 | > 100 | – | – | – | – | – | –
C[C@@H]1CCN(C(=O)CC#N)C[C@@H]1N(C)c1ncnc2[nH]ccc12 | – | > 100 | > 100 | – | > 100 | > 100 | > 100 | > 100 | – | – | > 100 | > 100 | 34 | > 100 | 39.3 | > 100
CC1CSc2nc3[nH]c(=S)[nH]c3c(=O)n2C1 (stereo unspecified) | > 100 | > 100 | > 100 | > 100 | > 100 | > 100 | > 100 | > 100 | – | – | – | – | – | – | – | –
N#Cc1nc(Cc2ccccc2)oc1N | – | – | – | > 100 | > 100 | > 100 | > 100 | > 100 | > 100 | > 100 | – | – | – | – | – | –
O=[N+]([O-])C(=C/C1CCCCC1)/C(=C\C1CCCCC1)[N+](=O)[O-] | – | 36.4 | > 27.3 | > 82 | 29.8 | 32.8 | 9.4 | 4.94 | 6.89 | – | – | – | – | – | – | –
CCOC(=O)c1ccc(Nc2nc3ccc(C(F)(F)F)cc3nc2-c2ccccc2)cc1 | > 100 | > 100 | > 100 | > 100 | > 100 | > 100 | > 100 | > 100 | > 100 | – | – | – | – | – | – | –
CCOC(=O)/C=C/[C@H](O[Si](c1ccccc1)(c1ccccc1)c1ccccc1)C(C)(C)C | > 100 | > 31.6 | > 31.6 | > 31.6 | > 31.6 | > 31.6 | > 31.6 | > 31.6 | – | > 31.6 | – | – | – | – | – | –
O=C(c1ccc(Cl)cc1)N(C(=S)N1CCN(c2ccccc2)CC1)c1ccccc1 | > 100 | – | > 100 | > 100 | > 100 | > 100 | > 100 | > 100 | > 100 | – | – | – | – | – | – | –
CCCN(CCC)C(=O)Cc1c2n(c3ccccc13)Cc1ccccc1-2 | > 100 | > 100 | > 100 | > 100 | > 100 | > 100 | > 100 | > 100 | > 100 | – | – | – | – | – | – | –
C/C(=C1/N=C(c2cc([N+](=O)[O-])ccc2Cl)N(C2=CC=C(Cl)CC2)C1=O)c1cc2ccccc2oc1=O | > 100 | > 100 | > 100 | > 100 | > 100 | > 100 | > 100 | > 100 | > 100 | – | – | – | – | – | – | –
COC(=O)c1cc(C)ccc1CC(Cc1ccccc1C)C(=O)OC (stereo unspecified) | 36.3 | > 100 | > 100 | > 100 | > 100 | > 100 | > 100 | 28.1 | – | > 100 | – | – | – | – | – | –
CC1(C)OC2CN(C(=O)OCc3ccccc3)C(CO)C2O1 (stereo unspecified) | > 100 | > 100 | > 100 | > 100 | > 100 | > 100 | > 100 | > 100 | – | > 100 | – | – | – | – | – | –
COc1ccc(/C=N/n2c(C)n[nH]c2=O)cc1 | – | > 100 | > 100 | > 100 | > 100 | > 100 | > 100 | – | – | > 100 | – | – | – | – | – | –
O=S(=O)(NC(c1ccccc1)(c1cc2ccccc2[nH]1)c1cc2ccccc2n1S(=O)(=O)c1ccccc1)c1ccccc1 (stereo unspecified) | > 100 | > 100 | > 100 | > 100 | > 100 | > 100 | – | > 100 | > 100 | – | – | – | – | – | – | –
CN(C)CCCNC(=O)CNC(=O)c1cc(NC(=O)c2cc(NC(=O)c3cc(NC(=O)CCNC(=O)c4cc(NC(=O)c5cc(NC(=O)c6nccn6C)cn5C)cn4C)cn3C)cn2C)cn1C | 94.1 | > 100 | > 100 | > 100 | > 100 | > 100 | > 100 | > 100 | – | > 100 | – | – | – | – | – | –
